In US20160368919A1, “NOVEL PYRIDINE PYRAZINONES AS BET-FAMILY BROMODOMAIN INHIBITORS” (Pfizer Inc., priority 2015, published 2016):

Key:
[1] = system: LPS-induced IL-6 production in human whole blood; test: IL-6 human whole blood (HWB) assay, LPS-stimulated, HTRF detection; format: cell-based; details: 1 ng/ml LPS, 4 hours
Procedure: Compound effect on IL-6 production was determined using lipopolysaccharide (LPS)-stimulated human whole blood and an HTRF (Homogeneous Time-Resolved Fluorescence) IL-6 detection kit (Human IL6 HTRF Assay CisBio 62IL6PEC). HWB was collected by venous puncture from healthy donors, transferred to a 50 ml polypropylene tube containing sodium heparin (14.3 units per mL of HWB) and then placed in a 37° C. water bath until use. To start the assay, 80 μL of heparin-treated HWB containing 1 ng/ml of LPS (equivalent to LPS ˜EC80 with regard to stimulation of IL-6 production in HWB under these assay conditions) was added to each well of a 384-well, sterile, endotoxin-free, polypropylene plate (Greiner 781281) containing 160 nL of various concentrations of test compound (each plate also contained positive and negative control wells to define the upper and lower limits of the assay signal). The plate was then placed in a thermoshaker incubator set to 370C (Boekel 270440). The final assay concentration (FAC) of test compound ranged from 60 to 0.0006 μM and the FAC of DMSO was 0.2%. After 4 hours, the assay plate was removed from the incubator and centrifuged at 700×g for 10 minutes. 5 μL of the resulting upper plasma layer was removed from each well and diluted 1:2 with 1×Dulbecco's phosphate buffered saline (DPBS). 5 μL of this diluted plasma was then transferred to a white 384-well low volume assay plate (Greiner 784080) containing 5 μL of combined anti-IL-6-Cryptate and anti-IL-6-XL665 detection antibodies (per manufacturer's protocol). The plate was then sealed with a Top Seal (Perkin Elmer 6005185) and incubated at room temperature (RT, 20° C.). After 16-18 hrs (overnight), the HTRF assay signal was read on an Envision 2103 plate reader using a Lance Delfia Dual/Bias mirror TRF laser excitation and emission was measured at 665 nm and 615 nm respectively. The percent (%) effect was calculated for each concentration of test compound and was relative to the amount of HTRF signal produced by the positive and negative control wells contained within each assay plate. The concentrations and % effect values for test compounds were plotted versus each other with a proprietary curve fitting program using a four-parameter logistic dose response equation and the concentration of compound required for 50% effect (IC50) was determined.

[2] = target: T1, BRD4 BD1 (Homo sapiens, UniProt O60885); test: BRD4 BD1 Fluorescence Polarization (FP) competition binding assay; details: BRD4 BD1 40 nM, probe PFI-411FP 2 nM
T1 construct: His-tagged BRD4 BD1 (44-160); made in house
Procedure: Compound binding to BRD4 BD1 was assessed with a FP competition binding assay. […] All assay components were diluted in 50 mM HEPES pH 7.4 containing 0.08% bovine serum albumin (assay buffer). To start the assay, 8 μL of BRD4 BD1 was added to each well of a low volume 384-well black flat bottom microtiter plate (Corning 3820) containing 4 μl of various concentrations of test compound (each plate also contained positive and negative control wells to define the upper and lower limits of the assay signal). After addition of BRD4 BD1, the assay plate was incubated at room temperature (RT, 20° C.). After 15 minutes, 4 μL of PFI-411FP was added to each well and the assay plate was placed in the dark at RT. The final assay concentration (FAC) of PFI-411FP was 2 nM, the FAC of BRD4 BD1 was 40 nM, the FAC of test compound ranged from 120 to 0.0012 μM and the FAC of DMSO was 0.4%. After 60 min, polarization values were measured with an Envision 2103 multilabel reader (Perkin Elmer) using a Cy5 dual enhanced mirror and excitation at 620 nm and emission at 688 nm. The percent (%) effect was calculated for each concentration of test compound and was relative to the amount of polarization signal produced by the positive and negative control wells contained within each assay plate. The concentrations and % effect values for test compounds were plotted versus each other with a proprietary curve fitting program using a four-parameter logistic dose response equation and the concentration of compound required for 50% effect (IC50) was determined. The Ki values of competitive inhibitors were calculated using the equation described by Nikolovska-Coleska et al. (Development and optimization of a binding assay for the XIAP BIR3 domain using fluorescence polarization. Analytical Biochemistry (2004) 332: 261-273).

Row | Structure (SMILES) | IC50 [1] [nM] | IC50 [2] [nM]
1 | COC[C@@H](c1ccccc1)n1c(=O)c(NCCC(=O)O)nc2ccc(N(C)C(C)=O)nc21 [Example 14, N-{6-[acetyl(methyl)amino]-4-[(1R)-2-methoxy-1-phenylethyl]-3-oxo-3,4-dihydropyrido[2,3-b]pyrazin-2-yl}-beta-alanine] | 4800 | 223
2 | CCC(=O)N(C)c1ccc2nc(NCCC(=O)O)c(=O)n(C3C(CC)CCC3CC)c2n1 (stereo not drawn) [Example 13, N-{4-(2,5-diethylcyclopentyl)-6-[methyl(propanoyl)amino]-3-oxo-3,4-dihdropyrido[2,3-b]pyrazin-2-yl}-beta-alanine] | 846 | 111
3 | CC[C@@H](c1ccccc1)n1c(=O)c(NCCC(=O)O)nc2ccc(N(C)C(=O)N(C)C)nc21 [Example 22, N-{6-[(dimethylcarbamoyl)(methyl)amino]-3-oxo-4-[(1S)-1-phenylpropyl]-3,4-dihydropyrido[2,3-b]pyrazin-2-yl}-beta-alanine] | 22500 | 913
4 | CCC(=O)N(C)c1ccc2nc(NC)c(=O)n(C(COC)COC)c2n1 [Example 20, N-(4-(1,3-dimethoxypropan-2-yl)-2-(methylamino)-3-oxo-3,4-dihydropyrido[2,3-b]pyrazin-6-yl)-N-methylpropionamide] | 1460 | 1070
5 | Cc1noc(C)c1-c1ccc2nc(NCCc3nnn[nH]3)c(=O)n([C@@H](C)c3ccccc3)c2n1 [Example 51, 6-(3,5-dimethyl-1,2-oxazol-4-yl)-4-[(1S)-1-phenylethyl]-2-{[2-(1H-tetrazol-5-yl)ethyl]amino}pyrido[2,3-b]pyrazin-3(4H)-one] | 63700 | 294
6 | CC[C@@H](c1ncccn1)n1c(=O)c(NCCC(=O)O)nc2ccc(-c3c(C)noc3C)nc21 [Example 45, N-{6-(3,5-dimethyl-1,2-oxazol-4-yl)-3-oxo-4-[(1S)-1-(pyrimidin-2-yl)propyl]-3,4-dihydropyrido[2,3-b]pyrazin-2-yl}-beta-alanine] | 8440 | 325
7 | COCC(COC)n1c(=O)c(NCCC(=O)O)nc2ccc(-c3c(C)noc3C)nc21 [Example 48, N-[4-(1,3-dimethoxypropan-2-yl)-6-(3,5-dimethyl-1,2-oxazol-4-yl)-3-oxo-3,4-dihydropyrido[2,3-b]pyrazin-2-yl]-beta-alanine] | 15100 | 465
8 | CC[C@@H](c1ccccc1)n1c(=O)c(NCCN2CCOCC2)nc2ccc(-c3c(C)noc3C)nc21 [Example 39, 6-(3,5-dimethyl-1,2-oxazol-4-yl)-2-{[2-(morpholin-4-yl)ethyl]amino}-4-[(1S)-1-phenylpropyl]pyrido[2,3-b]pyrazin-3(4H)-one] | 823 | 123
9 | CC[C@@H](c1ccccc1)n1c(=O)c(NC(C)=O)nc2ccc(N(C)C(C)=O)nc21 [Example 21, N-{2-(acetylamino)-3-oxo-4-[(1S)-1-phenylpropyl]-3,4-dihydropyrido[2,3-b]pyrazin-6-yl}-N-methylacetamide] | 743 | 207
10 | CCC(=O)N(C)c1ccc2nc(NCCC(=O)O)c(=O)n(C3(C4CCCC4)CC3)c2n1 [Example 24, N-{4-(1-cyclopentylcyclopropyl)-6-[methyl(propanoyl)amino]-3-oxo-3,4-dihdropyrido[2,3-b]pyrazin-2-yl}-beta-alanine] | – | 1580
11 | CC[C@@H](c1ccccc1)n1c(=O)c(NCCC(=O)O)nc2ccc(N(C)C(=O)C3COC3)nc21 [Example 27, N-{6-[methyl(oxetan-3-ylcarbonyl)amino]-3-oxo-4-[(1S)-1-phenylpropyl]-3,4-dihydropyrido[2,3-b]pyrazin-2-yl}-beta-alanine] | – | 1500
12 | CCC(=O)N(C)c1ccc2nc(NCCC(=O)O)c(=O)n([C@@H]3COC[C@H]3c3ccccc3)c2n1 [Example 15, N-{6-[methyl(propanoyl)amino]-3-oxo-4-[(3S,4S)-4-phenyltetrahydrofuran-3-yl]-3,4-dihydropyrido[2,3-b]pyrazin-2-yl}-beta-alanine] | – | 10200
13 | CC[C@H](COC)n1c(=O)c(NCCC(=O)O)nc2ccc(N(C)C(C)=O)nc21 [Example 16, N-{6-[acetyl(methyl)amino]-4-[(2R)-1-methoxybutan-2-yl]-3-oxo-3,4-dihydropyrido[2,3-b]pyrazin-2-yl}-beta-alanine] | – | 3880
14 | CC[C@@H](c1ccccc1)n1c(=O)c(NCCC(=O)O)nc2ccc(N(C)C(=O)C3CC(C)(C)C3)nc21 [Example 25, N-(6-{[(3,3-dimethylcyclobutyl)carbonyl](methyl)amino}-3-oxo-4-[(1S)-1-phenylpropyl]-3,4-dihydropyrido[2,3-b]pyrazin-2-yl)-beta-alanine] | – | 6370
15 | CCN(C(C)=O)c1ccc2nc(NCCC(=O)O)c(=O)n([C@@H](C)c3ccccc3OC)c2n1 [Example 2, N-{6-[acetyl(ethyl)amino]-4-[(1S)-1-(2-methoxyphenyl)ethyl]-3-oxo-3,4-dihydropyrido[2,3-b]pyrazin-2-yl}-beta-alanine] | – | 2710
16 | CCC(=O)N(C)c1ccc2nc(NCC(=O)NC)c(=O)n([C@H](CC)COC)c2n1 [Example 18, N-(4-[(2R)-1-methoxybutan-2-yl]-2-{[2-(methylamino)-2-oxoethyl]amino}-3-oxo-3,4-dihydropyrido[2,3-b]pyrazin-6-yl)-N-methylpropanamide] | – | 4190
17 | Cc1noc(C)c1-c1ccc2nc(NCCN3CCOCC3)c(=O)n(Cc3ccccc3)c2n1 [Example 37, 4-benzyl-6-(3,5-dimethyl-1,2-oxazol-4-yl)-2-{[2-(morpholin-4-yl)ethyl]amino}pyrido[2,3-b]pyrazin-3(4H)-one] | – | 474
18 | CC[C@@H](c1ccccc1)n1c(=O)c(NCCC(=O)O)nc2ccc(N(C)C(=O)C3CC(F)(F)C3)nc21 [Example 26, N-(6-{[(3,3-difluorocyclobutyl)carbonyl](methyl)amino}-3-oxo-4-[(1S)-1-phenylpropyl]-3,4-dihydropyrido[2,3-b]pyrazin-2-yl)-beta-alanine] | – | 7590
19 | CCC(=O)N(C)c1ccc2nc(NCC(=O)NC)c(=O)n(C(COC)COC)c2n1 [Example 19, N-(4-(1,3-dimethoxypropan-2-yl)-2-((2-(methylamino)-2-oxoethyl)amino)-3-oxo-3,4-dihydropyrido[2,3-b]pyrazin-6-yl)-N-methylpropionamide] | – | 4030
20 | CC[C@H](c1ccccc1)n1c(=O)c(NCCN2CCOCC2)nc2ccc(-c3c(C)noc3C)nc21 [Example 38, 6-(3,5-dimethyl-1,2-oxazol-4-yl)-2-{[2-(morpholin-4-yl)ethyl]amino}-4-[(1R)-1-phenylpropyl]pyrido[2,3-b]pyrazin-3(4H)-one] | – | 532
21 | Cc1noc(C)c1-c1ccc2nc(NCCC(=O)O)c(=O)n(C3CCOCC3)c2n1 [Example 49, N-[6-(3,5-dimethyl-1,2-oxazol-4-yl)-3-oxo-4-(tetrahydro-2H-pyran-4-yl)-3,4-dihydropyrido[2,3-b]pyrazin-2-yl]-beta-alanine] | – | 4870
22 | CCOc1ccccc1Cn1c(=O)c(NCCN2CCOCC2)nc2ccc(-c3c(C)noc3C)nc21 [Example 36, 6-(3,5-dimethyl-1,2-oxazol-4-yl)-4-(2-ethoxybenzyl)-2-{[2-(morpholin-4-yl)ethyl]amino}pyrido[2,3-b]pyrazin-3(4H)-one] | – | 2480
